≈ marks a conversion by molar mass, not a printed value.
What was measured:
C. albicans (ATCC 24433) = test: Antifungal broth microdilution assay (EUCAST EDef 7.1), C. albicans; type: cell-based; settings: for MIC50: Candida albicans, ATCC24433, read-out: Minimum inhibitory concentration (MIC50)
Procedure: (§1) The anticandidal effect of compounds 6a–6s were screened in accord with the EUCAST definitive (EDef 7.1) method. Ketoconazole was employed as a reference drug. The in vitro growth inhibitory activity of the compounds were tested against C. albicans (ATCC 24433), C. glabrata (ATCC 90030), C. krusei (ATCC 6258) and C. parapsilosis (ATCC 22019). The results were obtained as MIC values and MIC readings were accomplished twice for each chemical agent. After incubating overnight at 37 °C, the fungal strains were sustained in Roswell Park Memorial Institute (RPMI) medium.
(§2) Adjustment of the inoculum density to a 0.5 McFarland turbidity standard was carried out by using a spectrophotometer. The resulting inoculum suspension contained 0.5 × 10^5–2.5 × 10^5 cfu/mL for fungi. The two-fold serial dilutions technique were applied and the test was carried out in Mueller–Hinton broth and RPMI at pH7 and the test was performed for medium at pH7. The last well on the microplates containing only inoculated broth and the last well with no growth of microorganism represent controls and the MIC50 in μg/mL, respectively. DMSO was used as solvent. Further dilutions of the compounds and standard drugs in the RPMI medium were prepared in the required quantities at contcentrations of 800, 400, 200, 100, 50, 25, 12.5, 6.25, 3.125, 1.5625 and 0.78 µg/mL. After a 24 h incubation of the completed plates, resazurin (20 µg/mL) was added into each well in order to observe the fungal growth. […] Each experiment in antifungal assay was performed twice.

C. glabrata (ATCC 90030) = test: Antifungal broth microdilution assay (EUCAST EDef 7.1), C. glabrata; type: cell-based; settings: for MIC50: Nakaseomyces glabratus, ATCC90030, read-out: Minimum inhibitory concentration (MIC50)
Procedure: as §1, §2

C. krusei (ATCC 6258) = test: Antifungal broth microdilution assay (EUCAST EDef 7.1), C. krusei; type: cell-based; settings: for MIC50: Pichia kudriavzevii, ATCC6258, read-out: Minimum inhibitory concentration (MIC50)
Procedure: as §1, §2

[1] = test system: C. parapsilosis (ATCC 22019); test: Antifungal broth microdilution assay (EUCAST EDef 7.1), C. parapsilosis; type: cell-based; settings: C. parapsilopsis; for MIC50: Lodderomyces parapsilosis, ATCC22019, read-out: Minimum inhibitory concentration (MIC50)
Procedure: as §1, §2

[2] = test system: ergosterol biosynthesis in C. krusei; test: Ergosterol level quantification by LC-MS-MS in C. krusei; type: cell-based; settings: Pichia kudriavzevii, mean ± SD
Procedure: The ergosterol level was determined using the method described by Breivik and Owades with adjustments according to [2]. C. krusei was inoculated with Sabouraud dextrose broth (Difco) supplemented with compounds 6e, 6k, 6r and the positive control, ketoconazole. The cultures were incubated, and the stationary-phase cells were harvested. After the addition of 25% alcoholic potassium hydroxide solution, cell suspensions were separated and incubated. Sterols were extracted by sterile distilled water and chloroform, and then the extract was injected into the LC-MS-MS system (Shimadzu LCMS 8040, Kyoto, Japan). The ergosterol quantity in the negative control samples was considered as 100%. All concentrations were analysed in quadruplicate, and the results were presented as mean ± standard deviation (SD).

| MIC50 (C. albicans (ATCC 24433)) [µg/mL] | MIC50 (C. glabrata (ATCC 90030)) [µg/mL] | MIC50 (C. krusei (ATCC 6258)) [µg/mL] | MIC50 [1] [µg/mL] | melting point [°C] | Minimum inhibitory concentration (MIC50) (C. albicans (ATCC 24433)) [µg/mL] | Minimum inhibitory concentration (MIC50) (C. glabrata (ATCC 90030)) [µg/mL] | Minimum inhibitory concentration (MIC50) (C. krusei (ATCC 6258)) [µg/mL] | Minimum inhibitory concentration (MIC50) [1] [µg/mL] | Compound | inhibition at 0.78 µg/mL ([2]; 0.78 µg/mL) [%] | inhibition at 1.56 µg/mL ([2]; 1.56 µg/mL) [%] | inhibition at 3.12 µg/mL ([2]; 3.12 µg/mL) [%] |
| --- | --- | --- | --- | --- | --- | --- | --- | --- | --- | --- | --- | --- |
| 50 (≈ 105 µM) | 50 (≈ 105 µM) | 100 (≈ 210 µM) | 50 (≈ 105 µM) | 136 |  |  |  |  | Cc1ccc(C(=O)CSc2nnc(CCSc3nnc(NC4CCCCC4)s3)o2)cc1 [Compound 6b, 2-[[5-[2-[[5-(Cyclohexylamino)-1,3,4-thiadiazol-2-yl]thio]ethyl]-1,3,4-oxadiazol-2-yl]thio]-1-(4-methylphenyl)ethan-1-one] |  |  |  |
| 100 (≈ 177 µM) | 25 (≈ 44.3 µM) | 25 (≈ 44.3 µM) | 50 (≈ 88.7 µM) |  |  |  |  |  | COc1ccc2nc(NC(=O)CSc3nnc(CCSc4nnc(NC5CCCCC5)s4)o3)sc2c1 [Compound 6o, 2-[[5-[2-[[5-(Cyclohexylamino)-1,3,4-thiadiazol-2-yl]thio]ethyl]-1,3,4-oxadiazol-2-yl]thio]-N-(6-methoxybenzothiazol-2-yl)acetamide] |  |  |  |
|  |  |  |  |  | 50 (≈ 105 µM) | 50 (≈ 105 µM) | 50 (≈ 105 µM) | 50 (≈ 105 µM) | O=C(CSc1nnc(CCSc2nnc(NC3CCCCC3)s2)o1)Nc1ccccc1 [Compound 6g, 2-[[5-[2-[[5-(Cyclohexylamino)-1,3,4-thiadiazol-2-yl]thio]ethyl]-1,3,4-oxadiazol-2-yl]thio]-N-phenyl acetamide] |  |  |  |
| 0.78 (≈ 1.47 µM) | 1.56 (≈ 2.94 µM) | 1.56 (≈ 2.94 µM) | 1.56 (≈ 2.94 µM) |  |  |  |  |  | CC(=O)N1CCN(c2ccc(OCC3COC(Cn4ccnc4)(c4ccc(Cl)cc4Cl)O3)cc2)CC1 (stereo not drawn) [Ketoconazole, reference compound] | 61 ± 2.94 | 73.1 ± 4.16 | 84.6 ± 3.01 |
| 100 (≈ 202 µM) | 50 (≈ 101 µM) | 50 (≈ 101 µM) | 25 (≈ 50.5 µM) |  |  |  |  |  | O=C(CSc1nnc(CCSc2nnc(NC3CCCCC3)s2)o1)Nc1ccc(F)cc1 [Compound 6l, 2-[[5-[2-[[5-(Cyclohexylamino)-1,3,4-thiadiazol-2-yl]thio]ethyl]-1,3,4-oxadiazol-2-yl]thio]-N-(4-fluorophenyl)acetamide] |  |  |  |
| 100 (≈ 183 µM) | 25 (≈ 45.6 µM) | 50 (≈ 91.3 µM) | 25 (≈ 45.6 µM) | 209 |  |  |  |  | Cc1ccc2nc(NC(=O)CSc3nnc(CCSc4nnc(NC5CCCCC5)s4)o3)sc2c1 [Compound 6n, 2-[[5-[2-[[5-(Cyclohexylamino)-1,3,4-thiadiazol-2-yl]thio]ethyl]-1,3,4-oxadiazol-2-yl]thio]-N-(6-methylbenzothiazol-2-yl)acetamide] |  |  |  |
| 25 (≈ 50.9 µM) | 100 (≈ 204 µM) | 100 (≈ 204 µM) | 50 (≈ 102 µM) |  |  |  |  |  | Cc1ccc(NC(=O)CSc2nnc(CCSc3nnc(NC4CCCCC4)s3)o2)cc1 [Compound 6h, 2-[[5-[2-[[5-(Cyclohexylamino)-1,3,4-thiadiazol-2-yl]thio]ethyl]-1,3,4-oxadiazol-2-yl]thio]-N-(4-methylphenyl)acetamide] |  |  |  |
| 100 (≈ 202 µM) | 25 (≈ 50.4 µM) | 50 (≈ 101 µM) | 50 (≈ 101 µM) | 167 |  |  |  |  | O=C(CSc1nnc(CCSc2nnc(NC3CCCCC3)s2)o1)c1ccc(Cl)cc1 [Compound 6d, 2-[[5-[2-[[5-(Cyclohexylamino)-1,3,4-thiadiazol-2-yl]thio]ethyl]-1,3,4-oxadiazol-2-yl]thio]-1-(4-chlorophenyl)ethan-1-one] |  |  |  |
| 100 (≈ 203 µM) | 25 (≈ 50.8 µM) | 100 (≈ 203 µM) | 50 (≈ 102 µM) | 120 |  |  |  |  | COc1ccc(C(=O)CSc2nnc(CCSc3nnc(NC4CCCCC4)s3)o2)cc1 [Compound 6c, 2-[[5-[2-[[5-(Cyclohexylamino)-1,3,4-thiadiazol-2-yl]thio]ethyl]-1,3,4-oxadiazol-2-yl]thio]-1-(4-methoxyphenyl)ethan-1-one] |  |  |  |
| 25 (≈ 48.9 µM) | 50 (≈ 97.8 µM) | 50 (≈ 97.8 µM) | 50 (≈ 97.8 µM) |  |  |  |  |  | O=C(CSc1nnc(CCSc2nnc(NC3CCCCC3)s2)o1)Nc1ccc(Cl)cc1 [Compound 6j, 2-[[5-[2-[[5-(Cyclohexylamino)-1,3,4-thiadiazol-2-yl]thio]ethyl]-1,3,4-oxadiazol-2-yl]thio]-N-(4-chlorophenyl)acetamide] |  |  |  |
| 50 (≈ 93.7 µM) | 50 (≈ 93.7 µM) | 50 (≈ 93.7 µM) | 25 (≈ 46.8 µM) | 214 |  |  |  |  | O=C(CSc1nnc(CCSc2nnc(NC3CCCCC3)s2)o1)Nc1nc2ccccc2s1 [Compound 6m, 2-[[5-[2-[[5-(Cyclohexylamino)-1,3,4-thiadiazol-2-yl]thio]ethyl]-1,3,4-oxadiazol-2-yl]thio]-N-(benzothiazol-2-yl)acetamide] |  |  |  |
| 50 (≈ 88 µM) | 25 (≈ 44 µM) | 25 (≈ 44 µM) | 50 (≈ 88 µM) | 213 |  |  |  |  | O=C(CSc1nnc(CCSc2nnc(NC3CCCCC3)s2)o1)Nc1nc2ccc(Cl)cc2s1 [Compound 6p, 2-[[5-[2-[[5-(Cyclohexylamino)-1,3,4-thiadiazol-2-yl]thio]ethyl]-1,3,4-oxadiazol-2-yl]thio]-N-(6-chlorobenzothiazol-2-yl)acetamide] |  |  |  |
| 25 (≈ 54.2 µM) | 50 (≈ 108 µM) | 50 (≈ 108 µM) | 50 (≈ 108 µM) | 141 |  |  |  |  | O=C(CSc1nnc(CCSc2nnc(NC3CCCCC3)s2)o1)c1ccccc1 [Compound 6a, 2-[[5-[2-[[5-(Cyclohexylamino)-1,3,4-thiadiazol-2-yl]thio]ethyl]-1,3,4-oxadiazol-2-yl]thio]-1-phenylethan-1-one] |  |  |  |
| 25 (≈ 49.3 µM) | 100 (≈ 197 µM) | 100 (≈ 197 µM) | 50 (≈ 98.7 µM) |  |  |  |  |  | COc1ccc(NC(=O)CSc2nnc(CCSc3nnc(NC4CCCCC4)s3)o2)cc1 [Compound 6i, 2-[[5-[2-[[5-(Cyclohexylamino)-1,3,4-thiadiazol-2-yl]thio]ethyl]-1,3,4-oxadiazol-2-yl]thio]-N-(4-methoxyphenyl)acetamide] |  |  |  |
| 50 (≈ 90.6 µM) | 6.25 (≈ 11.3 µM) | 50 (≈ 90.6 µM) | 50 (≈ 90.6 µM) |  |  |  |  |  | O=C(CSc1nnc(CCSc2nnc(NC3CCCCC3)s2)o1)Nc1nc2ccc(F)cc2s1 [Compound 6s, 2-[[5-[2-[[5-(Cyclohexylamino)-1,3,4-thiadiazol-2-yl]thio]ethyl]-1,3,4-oxadiazol-2-yl]thio]-N-(6-fluorobenzothiazol-2-yl)acetamide] |  |  |  |
| 50 (≈ 104 µM) | 50 (≈ 104 µM) | 25 (≈ 52.1 µM) | 50 (≈ 104 µM) | 131 |  |  |  |  | O=C(CSc1nnc(CCSc2nnc(NC3CCCCC3)s2)o1)c1ccc(F)cc1 [Compound 6f, 2-[[5-[2-[[5-(Cyclohexylamino)-1,3,4-thiadiazol-2-yl]thio]ethyl]-1,3,4-oxadiazol-2-yl]thio]-1-(4-fluorophenyl)ethan-1-one] |  |  |  |
